US6737383B1, “Herbicidal oxadiazolidines” (priority 1999, dated 2004)

Key:
corn = test: Test B pre/postemergence corn; assay type: in vivo, Zea mays
Method in brief: (§1)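 Response is a visual 0-to-10 score relative to untreated plants, where 0 means no effect and 10 means complete control, taken twelve to sixteen days after application. Treatments went onto soil at planting and onto foliage of 1- to 4-leaf plants, using a surfactant-containing non-phytotoxic solvent.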

morningglory = test: Test B pre/postemergence morningglory; assay type: in vivo, Ipomoea hederacea
Method in brief: as §1

rape = test: Test B pre/postemergence rape; assay type: in vivo, Brassica napus
Method in brief: as §1

bamyardgrass = test: Test B flood test barnyardgrass; assay type: in vivo, Echinochloa crus-galli
Method in brief: (§2)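 Flood test on plants grown to the 2-leaf stage; treated plants kept in greenhouse twelve to sixteen days, then visually rated against controls on a 0 (no effect) to 10 (complete control) scale.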

surinam grass = test: Test B pre/postemergence surinam grass; assay type: in vivo, Brachiaria decumbens
Method in brief: as §1

wild oat = test: Test B pre/postemergence wild oat; assay type: in vivo, Avena fatua
Method in brief: as §1

purple nutsedge = test: Test B pre/postemergence purple nutsedge; assay type: in vivo, Cyperus rotundus
Method in brief: as §1

giant foxtail = test: Test B pre/postemergence giant foxtail; assay type: in vivo, Setaria faberii
Method in brief: as §1

smallflower flatsedge = test: Test B flood test smallflower flatsedge; assay type: in vivo, Cyperus difformis
Method in brief: as §2

soybean = test: Test B pre/postemergence soybean; assay type: in vivo, Glycine max
Method in brief: as §1

blackgrass = test: Test B pre/postemergence blackgrass; assay type: in vivo, Alopecurus myosuroides
Method in brief: as §1

velvetleaf = test: Test B pre/postemergence velvetleaf; assay type: in vivo, Abutilon theophrasti
Method in brief: as §1

pigweed = test: Test B pre/postemergence pigweed; assay type: in vivo, Amaranthus retroflexus
Method in brief: as §1

crabgrass = test: Test B pre/postemergence crabgrass; assay type: in vivo, Digitaria sanguinalis
Method in brief: as §1

cocklebur = test: Test B pre/postemergence cocklebur; assay type: in vivo, Xanthium strumarium
Method in brief: as §1

sugar beet = test: Test B pre/postemergence sugar beet; assay type: in vivo, Beta vulgaris
Method in brief: as §1

[1] = Postemergence, Rate 125 g/ha, scale of 0 to 10 where 0 is no effect and 10 is complete control
[2] = Preemergence, Rate 62 g/ha, scale 0 to 10 (0 no effect, 10 complete control)
[3] = Preemergence, Rate 125 g/ha, 0 is no effect, 10 is complete control
[4] = Preemergence, Rate 250 g/ha, scale 0 to 10, 0 is no effect, 10 is complete control
[5] = Preemergence, Rate 500 g/ha, scale 0 to 10 (0 no effect, 10 complete control)
[6] = Rate 62 g/ha, Postemergence, scale of 0 to 10 where 0 is no effect and 10 is complete control
[7] = Rate 250 g/ha, Postemergence, scale 0 to 10, 0 is no effect, 10 is complete control
[8] = Rate 500 g/ha, Postemergence, scale 0 to 10, 0 no effect, 10 complete control
[9] = Postemergence (flood test species), Rate 125 g/ha, scale of 0 to 10 where 0 is no effect and 10 is complete control
[10] = Postemergence, Rate 62 g/ha, scale 0 to 10, 0 is no effect, 10 is complete control
[11] = Rate 250 g/ha, Postemergence (flood test), scale 0 to 10, 0 is no effect, 10 is complete control
[12] = Rate 250 g/ha, headed Pre-emergence (flood test species), scale 0 to 10 (0 no effect, 10 complete control)
[13] = Rate 500 g/ha, headed Pre-emergence (flood test species), scale 0 to 10 (0 no effect, 10 complete control)
[14] = Rate 500 g/ha, listed under Postemergence (flood test species), scale 0 to 10, 0 no effect, 10 complete control

CC(C)N(C(=O)n1oc(=O)n(-c2cnn(C)c2)c1=O)c1ccccc1 [Compound 123]
5: B. signalgrass plant response rating (surinam grass; Rate 500 g/ha, Postemergence, scale of 0 to 10 where 0 is no effect and 10 is complete control) | Giant foxtail plant response rating (giant foxtail; [1]) | Redroot pigweed plant response rating (pigweed; [4]) | Crabgrass plant response rating (0 to 10 scale) (crabgrass; [3]) | Crabgrass plant response rating (crabgrass; [4]) | Sugarbeets plant response rating (sugar beet; [4])
8: Morningglory plant response rating (morningglory; [6]) | Plant response rating, Giant foxtail (giant foxtail; [7]) | Plant response rating, Crabgrass (crabgrass; [7])
2: Rape plant response rating (rape; [8]) | B. signalgrass plant response rating (surinam grass; [5]) | Wild oats plant response rating (0 to 10 scale) (wild oat; [3]) | Wild oats plant response rating (wild oat; [8]) | Soybean plant response rating (soybean; [6]) | Blackgrass plant response rating (blackgrass; [6]) | Plant response rating, Redroot pigweed (pigweed; [7]) | Redroot pigweed plant response rating (pigweed; [8]) | Sugarbeets plant response rating (sugar beet; [8])
10: Plant response rating, Morningglory (morningglory; [7]) | Morningglory plant response rating (morningglory; [8]) | Giant foxtail plant response rating (giant foxtail; [5])
0: Corn plant response rating (corn; [1]) | Corn plant response rating (corn; [2]) | Corn plant response rating (0 to 10 scale) (corn; [3]) | Corn plant response rating (corn; [4]) | Corn plant response rating (corn; [5]) | Corn plant response rating (corn; [6]) | Plant response rating, Corn (corn; [7]) | Corn plant response rating (corn; [8]) | Morningglory plant response rating (morningglory; [2]) | Morningglory plant response rating (0 to 10 scale) (morningglory; [3]) | Morningglory plant response rating (morningglory; [4]) | Morningglory plant response rating (morningglory; [5]) | Rape plant response rating (rape; [1]) | Rape plant response rating (rape; [2]) | Rape plant response rating (0 to 10 scale) (rape; [3]) | Rape plant response rating (rape; [4]) | Rape plant response rating (rape; [5]) | Rape plant response rating (rape; [6]) | Plant response rating, Rape (rape; [7]) | Barnyardgrass plant response rating (bamyardgrass; [9]) | Barnyardgrass plant response rating (bamyardgrass; [10]) | Plant response rating, Barnyardgrass (bamyardgrass; [11]) | Barnyardgrass plant response rating (bamyardgrass; [12]) | Plant response rating, Barnyardgrass (bamyardgrass; [13]) | Barnyardgrass plant response rating (bamyardgrass; [14]) | Barnyardgrass plant response rating (bamyardgrass; Rate 1000 g/ha, Pre-emergence (as headed), scale 0 to 10) | Barnyardgrass plant response rating (bamyardgrass; Rate 2000 g/ha, Pre-emergence (as headed), scale 0 to 10, 0 no effect, 10 complete control) | B. signalgrass plant response rating (surinam grass; [10]) | B. signalgrass plant response rating (surinam grass; [1]) | B. signalgrass plant response rating (surinam grass; [2]) | B. signalgrass plant response rating (0 to 10 scale) (surinam grass; [3]) | B. signalgrass plant response rating (surinam grass; [4]) | Wild oats plant response rating (wild oat; [1]) | Wild oats plant response rating (wild oat; [2]) | Wild oats plant response rating (wild oat; [6]) | Plant response rating, Wild oats (wild oat; [7]) | Nutsedge plant response rating (purple nutsedge; [1]) | Nutsedge plant response rating (purple nutsedge; [2]) | Nutsedge plant response rating (0 to 10 scale) (purple nutsedge; [3]) | Nutsedge plant response rating (purple nutsedge; [4]) | Nutsedge plant response rating (purple nutsedge; [5]) | Nutsedge plant response rating (purple nutsedge; [6]) | Plant response rating, Nutsedge (purple nutsedge; [7]) | Nutsedge plant response rating (purple nutsedge; [8]) | S. Flatsedge plant response rating (smallflower flatsedge; [9]) | S. Flatsedge plant response rating (smallflower flatsedge; Pre-emergence, Rate 1000 g/ha, scale 0 to 10 (0 no effect, 10 complete control)) | S. Flatsedge plant response rating (smallflower flatsedge; Rate 62 g/ha, Postemergence section, flood test species, scale of 0 to 10 where 0 is no effect and 10 is complete control) | Plant response rating, S. Flatsedge (smallflower flatsedge; [11]) | S. Flatsedge plant response rating (smallflower flatsedge; [12]) | Plant response rating, S. Flatsedge (smallflower flatsedge; [13]) | S. Flatsedge plant response rating (smallflower flatsedge; [14]) | S. Flatsedge plant response rating (smallflower flatsedge; Rate 2000 g/ha, Pre-emergence (as headed), scale 0 to 10) | Soybean plant response rating (soybean; [2]) | Soybean plant response rating (0 to 10 scale) (soybean; [3]) | Soybean plant response rating (soybean; [4]) | Soybean plant response rating (soybean; [5]) | Blackgrass plant response rating (blackgrass; [2]) | Blackgrass plant response rating (0 to 10 scale) (blackgrass; [3]) | Velvetleaf plant response rating (velvetleaf; [1]) | Velvetleaf plant response rating (velvetleaf; [2]) | Velvetleaf plant response rating (0 to 10 scale) (velvetleaf; [3]) | Velvetleaf plant response rating (velvetleaf; [6]) | Plant response rating, Velvetleaf (velvetleaf; [7]) | Redroot pigweed plant response rating (pigweed; [2]) | Redroot pigweed plant response rating (pigweed; [6]) | Crabgrass plant response rating (crabgrass; [6]) | Cocklebur plant response rating (cocklebur; [1]) | Cocklebur plant response rating (cocklebur; [2]) | Cocklebur plant response rating (0 to 10 scale) (cocklebur; [3]) | Cocklebur plant response rating (cocklebur; [4]) | Cocklebur plant response rating (cocklebur; [5]) | Cocklebur plant response rating (cocklebur; [6]) | Plant response rating, Cocklebur (cocklebur; [7]) | Sugarbeets plant response rating (sugar beet; [1]) | Sugarbeets plant response rating (sugar beet; [2]) | Sugarbeets plant response rating (sugar beet; [6])
7: Giant foxtail plant response rating (giant foxtail; [2]) | Blackgrass plant response rating (blackgrass; [5]) | Blackgrass plant response rating (blackgrass; [8]) | Crabgrass plant response rating (crabgrass; [5]) | Sugarbeets plant response rating (sugar beet; [5])
3: Plant response rating, B. signalgrass (surinam grass; [7]) | Giant foxtail plant response rating (giant foxtail; [6]) | Velvetleaf plant response rating (velvetleaf; [4]) | Sugarbeets plant response rating (0 to 10 scale) (sugar beet; [3])
4: Soybean plant response rating (soybean; [1]) | Plant response rating, Soybean (soybean; [7]) | Soybean plant response rating (soybean; [8]) | Blackgrass plant response rating (blackgrass; [4]) | Redroot pigweed plant response rating (0 to 10 scale) (pigweed; [3]) | Crabgrass plant response rating (crabgrass; [1]) | Crabgrass plant response rating (crabgrass; [2])
6: Wild oats plant response rating (wild oat; [4]) | Wild oats plant response rating (wild oat; [5]) | Blackgrass plant response rating (blackgrass; [1]) | Plant response rating, Blackgrass (blackgrass; [7]) | Velvetleaf plant response rating (velvetleaf; [5])
9: Morningglory plant response rating (morningglory; [1]) | Giant foxtail plant response rating (0 to 10 scale) (giant foxtail; [3]) | Giant foxtail plant response rating (giant foxtail; [4]) | Giant foxtail plant response rating (giant foxtail; [8]) | Redroot pigweed plant response rating (pigweed; [5]) | Crabgrass plant response rating (crabgrass; [8])
1: Cocklebur plant response rating (cocklebur; [8]) | Plant response rating, Sugarbeets (sugar beet; [7])
